Measurements: US10501440B2, “Heteroarylcarboxamide derivatives as plasma kallikrein inhibitors” (Boehringer Ingelheim International GmbH, priority 2017, dated 2019)
Where two headings read alike, the source gives them in different places.

Columns and labels:
Type in all cases: biochemical
KLKB1 [1] = target: T1, KLKB1 (Homo sapiens (Human), UniProt P03952); test: Inhibition of human KLKB1 in dextran sulfate activated human PPP
Description: Evaluation of the Inhibition of Human KLKB1 in Dextran Sulfate Activated Human PPP
Platelet poor plasma (PPP) obtained from human wholeblood, anticoagulated with EDTA, was activated with 12.5 μg/mL dextransulfate for 7 min on ice. The activated PPP was incubated with various concentrations of the test compound in assay buffer. Afterwards the mixture was incubated at 24° C. with 0.25 mM fluorogenic substrate H-Pro-Phe-Arg-AMC (11295 from Bachem) and measurements were performed in a kinetic interval every 2nd minute for 16 min using a Spectramax M5 (Molecular Devices) with the following settings of the wavelength excitation of 350 nm and wavelength emission of 450 nm.
(§1) The number of the compound corresponds to the number of the Example in the experimental section.

KLKB1 [2] = target: T1, KLKB1; test: Inhibition of KLKB1 in kaolin activated human PPP
Description: Evaluation of the Inhibition of KLKB1 in Kaolin Activated Human PPP
Platelet poor plasma (PPP) obtained from human wholeblood, anticoagulated with Na-Citrat, was incubated with various concentrations of the test compound together with either 25, 75, 250, or 750 μg/mL kaolin in assay buffer for 20 min at 37° C. such that for each kaolin dose used a concentration response was obtained for the test compound.
as §1

KLKB1 [3] = target: T1, KLKB1; test: Inhibition of KLKB1 using an endpoint assay (fluorogenic substrate H-Pro-Phe-Arg-AMC)
Description: (§2) The ability of compounds of formula (I) to inhibit plasma kallikrein (KLKB1), Factor XIIa (FXIIa), Factor XIa (FXIa), Factor Xa (FXa), Factor IIa (alpha-thrombin; FIIa), plasmin, trypsin, tissue kallikrein 1 (KLK1), Factor Vila (FVIIa), or FVIIa complexed with Tissue Factor, phospholipids and CaCl2 (FVIIa/TF/PL/CaCl2) was determined using the following biochemical assays in assay buffer (100 mM Tris, 150 mM NaCL, adjusted to a pH of 7.8 with HCl, and containing 0.1% (w/v) BSA and 0.05% (v/v) Tween20) in the presence of 1% (v/v) DMSO:
Evaluation of the Inhibition of KLKB1 Using an Endpoint Assay
Human KLKB1 (0.01 U/mL; Enzyme Research Laboratories) or rat KLKB1 (0.625 nM; produced in-house) was incubated for 1 h at room temperature with 0.10 μM fluorogenic substrate H-Pro-Phe-Arg-AMC (11295 from Bachem) and various concentrations of the test compound in assay buffer. Subsequently, PPACK 11 (Calbiochem) was added as a stop solution to achieve a final concentration of 1 μM and fluorescence was measured using an Envision Reader (PerkinElmer) with the wavelength excitation setting of 355 nm and the wavelength emission setting of 460 nm.
as §1

KLKB1 [4] = target: T1, KLKB1; test: Inhibition of KLKB1 (Ki), kinetic assay; conditions: 24° C., 0.25 mM H-Pro-Phe-Arg-AMC; IC50 corrected for KM of substrate
Description: as §2
Evaluation of the Inhibition of KLKB1 (Ki)
Measurements were performed in a kinetic interval every 2nd minute for 16 min using a Spectramax M5 (Molecular Devices) with the following settings of the wavelength excitation of 350 nm and wavelength emission of 450 nm.
as §1
Calculation of pIC50 and Pki Values
The pIC50 values were then fitted using a four-parametric fitting procedure using GraphPad Prism (version 6; GraphPad Software, Inc.).
Where the IC50 is in molar and the KM value in mM.

[5] = human platelet poor plasma (EDTA) activated with 12.5 μg/mL dextransulfate, 24° C., read-out: IC50
[6] = human platelet poor plasma (Na-Citrat), 25, 75, 250 or 750 μg/mL kaolin, global fit, read-out: IC50
[7] = endpoint assay, 1 h at room temperature, 0.10 μM H-Pro-Phe-Arg-AMC, read-out: IC50

T1 sequence (P03952 391-638 limits assumed): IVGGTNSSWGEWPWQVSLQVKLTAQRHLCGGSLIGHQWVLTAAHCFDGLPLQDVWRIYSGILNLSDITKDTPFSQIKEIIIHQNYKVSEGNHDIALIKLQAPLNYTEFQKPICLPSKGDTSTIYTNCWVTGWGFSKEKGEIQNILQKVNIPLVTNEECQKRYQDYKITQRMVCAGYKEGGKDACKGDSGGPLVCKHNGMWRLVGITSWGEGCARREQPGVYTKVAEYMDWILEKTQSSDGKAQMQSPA
T1 sequence (P03952 20-390 partner limits assumed): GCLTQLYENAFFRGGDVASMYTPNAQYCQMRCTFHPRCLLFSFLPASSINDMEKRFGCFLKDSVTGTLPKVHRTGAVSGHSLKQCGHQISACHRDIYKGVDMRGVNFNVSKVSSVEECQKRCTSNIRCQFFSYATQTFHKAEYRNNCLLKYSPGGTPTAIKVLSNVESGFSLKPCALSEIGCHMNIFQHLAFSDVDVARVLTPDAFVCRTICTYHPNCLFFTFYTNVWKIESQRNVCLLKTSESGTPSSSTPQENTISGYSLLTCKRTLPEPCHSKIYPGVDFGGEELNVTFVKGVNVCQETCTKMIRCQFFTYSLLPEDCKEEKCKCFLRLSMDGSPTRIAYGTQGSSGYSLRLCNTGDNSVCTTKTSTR

IC90 (KLKB1 [2]; human platelet poor plasma (Na-Citrat), 25, 75, 250 or 750 μg/mL kaolin, global fit, read-out: IC90) [nM]	Structure (SMILES)	IC50 (KLKB1 [1]) [nM]	IC50 (KLKB1 [2]) [nM]	IC90 (KLKB1 [2]) [nM]	IC50 (KLKB1 [3]) [nM]	Ki (KLKB1 [4]) [nM]	IC50 (KLKB1 [1]; [5]) [nM]	IC50 (KLKB1 [2]; [6]) [nM]	IC50 (KLKB1 [3]; [7]) [nM]
	Cc1nc(N2CC3CC3C2)ccc1Cn1cc(C(=O)N[C@@H]2CCc3c2ccnc3N)cn1 (stereo partly drawn) [Example 1, N-[(5R)-1-Amino-5H,6H,7H-cyclopenta[c]pyridin-5-yl]-1-[(6-{3-azabicyclo[3.1.0]hexan-3-yl}-2-methylpyridin-3-yl)methyl]-1H-pyrazole-4-carboxamide]	54.1	19	199	0.5	0.3			
232	Cc1nc(N2CC3CC3C2)ncc1Cn1cc(C(=O)N[C@@H]2CCc3c2ccnc3N)cn1 (stereo partly drawn) [Example 11]					1.5	50.3	23.9	1.7
	Cc1nc(N2CC3C(C2)C3(F)F)ccc1Cn1cc(C(=O)N[C@@H]2CCc3c2ccnc3N)cn1 (stereo partly drawn) [Example 9, N-[(5R)-1-Amino-5H,6H,7H-cyclopenta[c]pyridin-5-yl]-1-[(6-{6,6-difluoro-3-azabicyclo[3.1.0]hexan-3-yl}-2-methylpyridin-3-yl)methyl]-1H-pyrazole-4-carboxamide]			89.5		0.4	18.1	14	0.6
